Test results reported in the CheMixHub viscosity set.
± gives the uncertainty stated by the source.

Assay: xn = mol fraction of the nth substance listed

CCCCCCCCCCCC + CCCCCC
Conditions	viscosity [mPa·s]
293.15 K, 100 kPa, x2 = 0.0986	1.294 ± 0.016
293.15 K, 100 kPa, x2 = 0.2	1.18 ± 0.01
293.15 K, 100 kPa, x2 = 0.2024	1.137 ± 0.014
293.15 K, 100 kPa, x2 = 0.2991	1.003 ± 0.012
293.15 K, 100 kPa, x2 = 0.4	0.89 ± 0.02
293.15 K, 100 kPa, x2 = 0.4003	0.864 ± 0.011
293.15 K, 100 kPa, x2 = 0.5036	0.746 ± 0.009
293.15 K, 100 kPa, x2 = 0.6	0.67 ± 0.01
293.15 K, 100 kPa, x2 = 0.6025	0.635 ± 0.008
293.15 K, 100 kPa, x2 = 0.7016	0.538 ± 0.007
293.15 K, 100 kPa, x2 = 0.8	0.47 ± 0.01
293.15 K, 100 kPa, x2 = 0.8003	0.453 ± 0.006
293.15 K, 100 kPa, x2 = 0.899	0.382 ± 0.005
298.1 K, 100 kPa, x2 = 0.5	0.719 ± 0.029
298.15 K, 100 kPa, x2 = 0.0986	1.188 ± 0.015
298.15 K, 100 kPa, x2 = 0.2024	1.049 ± 0.013
298.15 K, 100 kPa, x2 = 0.2991	0.929 ± 0.012
298.15 K, 100 kPa, x2 = 0.4003	0.803 ± 0.01
298.15 K, 100 kPa, x2 = 0.5036	0.697 ± 0.009
298.15 K, 100 kPa, x2 = 0.6025	0.596 ± 0.007
298.15 K, 100 kPa, x2 = 0.7016	0.508 ± 0.006
298.15 K, 100 kPa, x2 = 0.8003	0.429 ± 0.005
298.15 K, 100 kPa, x2 = 0.899	0.363 ± 0.005
298.15 K, 101 kPa, x1 = 0.1924	0.4343 ± 0.01
298.15 K, 101 kPa, x1 = 0.4248	0.6351 ± 0.012
298.15 K, 101 kPa, x1 = 0.605	0.8243 ± 0.013
298.15 K, 101 kPa, x1 = 0.8064	1.067 ± 0.013
298.15 K, 101.33 kPa, x1 = 0.0232	0.3154 ± 0.0036
298.15 K, 101.33 kPa, x1 = 0.0783	0.3506 ± 0.0039
298.15 K, 101.33 kPa, x1 = 0.1615	0.4067 ± 0.0044
298.15 K, 101.33 kPa, x1 = 0.1736	0.4183 ± 0.0045
298.15 K, 101.33 kPa, x1 = 0.3209	0.5387 ± 0.0056
298.15 K, 101.33 kPa, x1 = 0.411	0.6213 ± 0.0064
298.15 K, 101.33 kPa, x1 = 0.6005	0.8244 ± 0.0082
298.15 K, 101.33 kPa, x1 = 0.6932	0.9294 ± 0.0092
298.15 K, 101.33 kPa, x1 = 0.8557	1.137 ± 0.011
298.15 K, 101.33 kPa, x1 = 0.9271	1.241 ± 0.012
298.15 K, 101.33 kPa, x2 = 0.1128	1.196 ± 0.015
298.15 K, 101.33 kPa, x2 = 0.2137	1.047 ± 0.013
298.15 K, 101.33 kPa, x2 = 0.3024	0.9328 ± 0.012
298.15 K, 101.33 kPa, x2 = 0.4043	0.8164 ± 0.011
298.15 K, 101.33 kPa, x2 = 0.5067	0.7076 ± 0.0095
298.15 K, 101.33 kPa, x2 = 0.6062	0.6105 ± 0.0084
298.15 K, 101.33 kPa, x2 = 0.7222	0.5009 ± 0.0072
298.15 K, 101.33 kPa, x2 = 0.8039	0.4331 ± 0.0064
298.15 K, 101.33 kPa, x2 = 0.9037	0.3631 ± 0.0057
298.27 K, 101.3 kPa, x1 = 0.4998	0.7168 ± 0.0088
298.47 K, 101.3 kPa, x1 = 0.2499	0.4774 ± 0.0059
298.47 K, 101.3 kPa, x1 = 0.7481	1.002 ± 0.012
303.15 K, 100 kPa, x2 = 0.0986	1.095 ± 0.014
303.15 K, 100 kPa, x2 = 0.2024	0.971 ± 0.012
303.15 K, 100 kPa, x2 = 0.2991	0.864 ± 0.011
303.15 K, 100 kPa, x2 = 0.4003	0.75 ± 0.009
303.15 K, 100 kPa, x2 = 0.5036	0.653 ± 0.008
303.15 K, 100 kPa, x2 = 0.6025	0.561 ± 0.007
303.15 K, 100 kPa, x2 = 0.7016	0.479 ± 0.006
303.15 K, 100 kPa, x2 = 0.8003	0.407 ± 0.005
303.15 K, 100 kPa, x2 = 0.899	0.352 ± 0.004
303.57 K, 101.3 kPa, x1 = 0.7481	0.9319 ± 0.011
303.58 K, 101.3 kPa, x1 = 0.2499	0.4512 ± 0.0056
308.12 K, 101.3 kPa, x1 = 0.7481	0.8716 ± 0.011
308.15 K, 100 kPa, x2 = 0.0986	1.013 ± 0.013
308.15 K, 100 kPa, x2 = 0.2024	0.902 ± 0.011
308.15 K, 100 kPa, x2 = 0.2991	0.805 ± 0.01
308.15 K, 100 kPa, x2 = 0.4003	0.702 ± 0.009
308.15 K, 100 kPa, x2 = 0.5036	0.613 ± 0.008
308.15 K, 100 kPa, x2 = 0.6025	0.529 ± 0.007
308.15 K, 100 kPa, x2 = 0.7016	0.453 ± 0.006
308.15 K, 100 kPa, x2 = 0.8003	0.388 ± 0.005
308.15 K, 100 kPa, x2 = 0.899	0.334 ± 0.004
308.15 K, 101.33 kPa, x1 = 0.0232	0.2875 ± 0.0034
308.15 K, 101.33 kPa, x1 = 0.0783	0.3133 ± 0.0036
308.15 K, 101.33 kPa, x1 = 0.1615	0.3656 ± 0.0041
308.15 K, 101.33 kPa, x1 = 0.1736	0.3742 ± 0.0042
308.15 K, 101.33 kPa, x1 = 0.3209	0.4799 ± 0.0051
308.15 K, 101.33 kPa, x1 = 0.411	0.5504 ± 0.0057
308.15 K, 101.33 kPa, x1 = 0.6005	0.7191 ± 0.0073
308.15 K, 101.33 kPa, x1 = 0.8557	0.9709 ± 0.0097
308.15 K, 101.33 kPa, x1 = 0.9271	1.054 ± 0.01
308.18 K, 101.3 kPa, x1 = 0.4998	0.6313 ± 0.0077
308.23 K, 101.3 kPa, x1 = 0.2499	0.4292 ± 0.0053
311.42 K, 101.3 kPa, x1 = 0.2499	0.4144 ± 0.0051
313.15 K, 100 kPa, x2 = 0.0986	0.941 ± 0.012
313.15 K, 100 kPa, x2 = 0.2	0.87 ± 0.01
313.15 K, 100 kPa, x2 = 0.2024	0.841 ± 0.01
313.15 K, 100 kPa, x2 = 0.2991	0.753 ± 0.009
313.15 K, 100 kPa, x2 = 0.4	0.69 ± 0.01
313.15 K, 100 kPa, x2 = 0.4003	0.658 ± 0.008
313.15 K, 100 kPa, x2 = 0.5036	0.578 ± 0.007
313.15 K, 100 kPa, x2 = 0.6	0.53 ± 0.01
313.15 K, 100 kPa, x2 = 0.6025	0.5 ± 0.006
313.15 K, 100 kPa, x2 = 0.7016	0.43 ± 0.005
313.15 K, 100 kPa, x2 = 0.8	0.38 ± 0.01
313.15 K, 100 kPa, x2 = 0.8003	0.37 ± 0.005
313.15 K, 100 kPa, x2 = 0.899	0.317 ± 0.004
318.15 K, 100 kPa, x2 = 0.0986	0.876 ± 0.011
318.15 K, 100 kPa, x2 = 0.2024	0.786 ± 0.01
318.15 K, 100 kPa, x2 = 0.2991	0.706 ± 0.009
318.15 K, 100 kPa, x2 = 0.4003	0.619 ± 0.008
318.15 K, 100 kPa, x2 = 0.5036	0.545 ± 0.007
318.15 K, 100 kPa, x2 = 0.6025	0.474 ± 0.006
318.15 K, 100 kPa, x2 = 0.7016	0.409 ± 0.005
318.15 K, 100 kPa, x2 = 0.8003	0.359 ± 0.005
318.15 K, 100 kPa, x2 = 0.899	0.302 ± 0.004
322.68 K, 101.3 kPa, x1 = 0.4998	0.5301 ± 0.0065
323.08 K, 101.3 kPa, x1 = 0.2499	0.3672 ± 0.0045
323.15 K, 100 kPa, x2 = 0.0986	0.819 ± 0.01
323.15 K, 100 kPa, x2 = 0.2024	0.736 ± 0.009
323.15 K, 100 kPa, x2 = 0.2991	0.663 ± 0.008
323.15 K, 100 kPa, x2 = 0.4003	0.584 ± 0.007
323.15 K, 100 kPa, x2 = 0.5036	0.515 ± 0.006
323.15 K, 100 kPa, x2 = 0.6025	0.45 ± 0.006
323.15 K, 100 kPa, x2 = 0.7016	0.389 ± 0.005
323.15 K, 100 kPa, x2 = 0.8003	0.342 ± 0.004
323.15 K, 100 kPa, x2 = 0.899	0.287 ± 0.004
